Measured values as given in ChEMBL document CHEMBL5550217, “Discovery of gem-Dimethyl-hydroxymethylpyridine Derivatives as Potent Non-nucleoside RSV Polymerase Inhibitors” (J Med Chem, 2024).
The source made the active and inactive calls. The calls are words filed in the database; no cut-off is given here.

Columns and labels:
[1] = Lipophilicity, logD of the compound; type: physicochemical; settings: octanol/water
[2] = Cmax in Balb/c mouse at 10 mg/kg, po measured upto 24 hrs by LC-MS/MS analysis; type: ADME, organism-based; settings: in vivo
[3] = Clearance in Beagle dog at 0.5 mg/kg, iv measured upto 24 hrs by LC-MS/MS analysis; type: ADME, organism-based, Canis lupus familiaris; settings: in vivo
Human orthopneumovirus [4] = assay: In vivo antiviral activity against Human respiratory syncytial virus (RSV)-A2 intranasally infected in BALB/c mouse assessed as reduction in viral titer in lung treated orally QD 1 hr prior infection until 3 day post infection by plaque assay; type: functional, organism-based; settings: dose 1-100 mg/kg, route po
[5] = test system: Respiratory syncytial virus; assay: Antiviral activity against Respiratory syncytial virus (RSV)-A2-eGFP infected in human HeLa cells assessed as eGFP expression measured after 3 days by RSV Cell-based infection assay; type: functional, organism-based; settings: 72 h
[6] = Cmax in Beagle dog at 0.5 mg/kg, po measured upto 24 hrs by LC-MS/MS analysis; type: ADME, organism-based, Canis lupus familiaris; settings: in vivo
Human orthopneumovirus [7] = assay: In vivo antiviral activity against Human respiratory syncytial virus (RSV) M37 infected in lamb model assessed as reduction in microscopic lesions in lung at 1 to 4 mg/kg, po QD from 1 until 5 day post infection; type: functional, organism-based; settings: dose 1-4 mg/kg
P-glycoprotein = assay: Efflux ratio of permeability in dog MDCK-MDR1 cells assessed as P-glycoprotein mediated efflux; type: ADME, cell-based, Canis lupus familiaris
[8] = Metabolic stability in dog hepatocytes assessed as intrinsic clearance per 10^6 cells at 1 uM measured upto 180 mins by LC-MS/MS analysis; type: ADME, cell-based, Canis lupus familiaris, Hepatocyte; settings: read-out: CLH
[9] = AUC (0 to last) in Sprague-Dawley rat at 5 mg/kg, po measured upto 24 hrs by LC-MS/MS analysis; type: ADME, organism-based; settings: in vivo
Human orthopneumovirus [10] = assay: In vivo antiviral activity against Human respiratory syncytial virus (RSV) M37 infected in lamb model assessed as reduction in BALF peak viral titer in lung treated orally QD from 1 until 5 day post infection; type: functional, organism-based; settings: dose 0.4-4 mg/kg, route po
Human orthopneumovirus [11] = assay: In vivo antiviral activity against Human respiratory syncytial virus (RSV) M37 infected in lamb model assessed as reduction in viral RNA level in lung at 0.25 to 4 mg/kg, po QD from 1 until 5 day post infection by qRT-PCR analysis; type: functional, organism-based; settings: dose 0.25-4 mg/kg
[12] = Plasma protein binding in rat assessed as free fraction; type: ADME, cell-free
Human orthopneumovirus [13] = assay: In vivo antiviral activity against Human respiratory syncytial virus (RSV) M37 infected in lamb model assessed as reduction in gross lesions in lung at 1 to 4 mg/kg, po QD from 1 until 5 day post infection; type: functional, organism-based; settings: dose 1-4 mg/kg
[14] = Metabolic stability in mouse hepatocytes assessed as intrinsic clearance per 10^6 cells at 1 uM measured upto 180 mins by LC-MS/MS analysis; type: ADME, cell-based, Hepatocyte; settings: read-out: CLH
[15] = Apparent permeability across apical to basolateral side in dog MDCK-MDR1 cells at 5 uM measured after 60 mins; type: ADME, cell-based, Canis lupus familiaris
[16] = Metabolic stability in human hepatocytes assessed as intrinsic clearance per 10^6 cells at 1 uM measured upto 180 mins by LC-MS/MS analysis; type: ADME, cell-based, Hepatocyte; settings: read-out: CLH
[17] = Inhibition of human RSV-A strain Memphis 37 RNA polymerase; parameters: species or system Human respiratory syncytial virus A
[18] = AUC (0 to last) in Beagle dog at 0.5 mg/kg, po measured upto 24 hrs by LC-MS/MS analysis; type: ADME, organism-based, Canis lupus familiaris; settings: in vivo
[19] = test system: Respiratory syncytial virus; assay: Antiviral activity against Respiratory syncytial virus (RSV) infected in human APC-126 cells assessed as replicon by measuring protein adjusted effective concentration in the presence of 40% human serum measured after 3 days by Renilla Glo assay; type: functional, organism-based; settings: 72 h
[20] = Volume of distribution at steady state in Balb/c mouse at 2.5 mg/kg, iv measured upto 24 hrs by LC-MS/MS analysis; type: ADME, organism-based; settings: in vivo, read-out: Vdss
[21] = Metabolic stability in rat hepatocytes assessed as intrinsic clearance per 10^6 cells at 1 uM measured upto 180 mins by LC-MS/MS analysis; type: ADME, cell-based, Hepatocyte; settings: read-out: CLH
[22] = Volume of distribution at steady state in Beagle dog at 0.5 mg/kg, iv measured upto 24 hrs by LC-MS/MS analysis; type: ADME, organism-based, Canis lupus familiaris; settings: in vivo, read-out: Vdss
[23] = Oral bioavailability in Beagle dog at 0.5 mg/kg measured upto 24 hrs by LC-MS/MS analysis; type: ADME, organism-based, Canis lupus familiaris; settings: in vivo
[24] = AUC (0 to last) in Balb/c mouse at 10 mg/kg, po measured upto 24 hrs by LC-MS/MS analysis; type: ADME, organism-based; settings: in vivo
[25] = Plasma protein binding in human assessed as free fraction; type: ADME, cell-free
[26] = Oral bioavailability in Sprague-Dawley rat at 5 mg/kg measured upto 24 hrs by LC-MS/MS analysis; type: ADME, organism-based; settings: in vivo
[27] = Half life in Sprague-Dawley rat at 1.25 mg/kg, iv measured upto 24 hrs by LC-MS/MS analysis; type: ADME, organism-based; settings: in vivo
[28] = Half life in Balb/c mouse at 2.5 mg/kg, iv measured upto 24 hrs by LC-MS/MS analysis; type: ADME, organism-based; settings: in vivo
[29] = Clearance in Balb/c mouse at 2.5 mg/kg, iv measured upto 24 hrs by LC-MS/MS analysis; type: ADME, organism-based; settings: in vivo
Human orthopneumovirus [30] = assay: In vivo antiviral activity against Human respiratory syncytial virus (RSV) M37 infected in lamb model assessed as reduction in viral titer in lung treated orally QD from 1 until 5 day post infection; type: functional, organism-based; settings: dose 0.4-4 mg/kg, route po
[31] = Plasma protein binding in mouse assessed as free fraction; type: ADME, cell-free
[32] = Volume of distribution at steady state in Sprague-Dawley rat at 1.25 mg/kg, iv measured upto 24 hrs by LC-MS/MS analysis; type: ADME, organism-based; settings: in vivo, read-out: Vdss
Human orthopneumovirus [33] = assay: In vivo antiviral activity against Human respiratory syncytial virus (RSV) M37 infected in lamb model assessed as lung histopathology score at 1 to 4 mg/kg, po QD from 1 until 5 day post infection by H and E staining based assay; type: functional, organism-based; settings: dose 1-4 mg/kg
[34] = Ratio of drug concentration in Sprague-Dawley rat lung to plasma at 5 mg/kg, po measured upto 24 hrs by LC-MS/MS analysis; type: ADME, organism-based
[35] = Oral bioavailability in Balb/c mouse at 10 mg/kg measured upto 24 hrs by LC-MS/MS analysis; type: ADME, organism-based; settings: in vivo
[36] = Half life in Beagle dog at 0.5 mg/kg, iv measured upto 24 hrs by LC-MS/MS analysis; type: ADME, organism-based, Canis lupus familiaris; settings: in vivo
[37] = Plasma protein binding in dog assessed as free fraction; type: ADME, cell-free, Canis lupus familiaris
[38] = Cytotoxicity against human HeLa cells measured after 3 days by ATPlite kit assay; type: toxicity, cell-based; settings: time 3 day
Human orthopneumovirus [39] = assay: In vivo antiviral activity against Human respiratory syncytial virus (RSV)-A2 intranasally infected in BALB/c mouse assessed as reduction in viral RNA level in lung treated orally QD 1 hr prior infection until 3 day post infection by qRT-PCR analysis; type: functional, organism-based; settings: dose 1-100 mg/kg, route po
Human orthopneumovirus [40] = assay: In vivo antiviral activity against Human respiratory syncytial virus (RSV) M37 infected in lamb model assessed as reduction in RSV cells in lung at 0.25 to 4 mg/kg, po QD from 1 until 5 day post infection by branched DNA technology (RNAscope); type: functional, organism-based; settings: dose 0.25-4 mg/kg
[41] = Clearance in Sprague-Dawley rat at 1.25 mg/kg, iv measured upto 24 hrs by LC-MS/MS analysis; type: ADME, organism-based; settings: in vivo
[42] = Inhibition of RSV RNA polymerase assessed as RNA products using […] template by SPA primer extension enzymatic assay; parameters: species or system Respiratory syncytial virus
[43] = Cmax in Sprague-Dawley rat at 5 mg/kg, po measured upto 24 hrs by LC-MS/MS analysis; type: ADME, organism-based; settings: in vivo

logD [1]: 3.55 | Cmax [2]: 1730 ng/mL | clearance [3]: 5.62 mL/min/kg | EC50 [5]: 0.82 nM | Cmax [6]: 249 ng/mL | efflux ratio (P-glycoprotein): > 93 | hepatocyte CLint at 1 µM [8]: 6.4 µL/min/1e6 cells | AUC(0-t) at 24 h [9]: 2100 ng·h/mL | Fu [12]: 0.13% | hepatocyte CLint at 1 µM [14]: 6.2 µL/min/1e6 cells | Papp A→B at 1 h, 5 µM [15]: 9.8 ×10⁻⁶ cm/s | hepatocyte CLint at 1 µM [16]: < 1.9 µL/min/1e6 cells | IC50 [17]: 0.3 nM | AUC(0-t) at 24 h [18]: 1200 ng·h/mL | EC50 [19]: 13 nM | Vd [20]: 1.68 L/kg | hepatocyte CLint at 1 µM [21]: 27 µL/min/1e6 cells | Vd [22]: 1.49 L/kg | bioavailability [23]: 81% | AUC(0-t) at 24 h [24]: 9580 ng·h/mL | Fu [25]: 0.66% | bioavailability [26]: 20% | half-life [27]: 3.15 h | half-life [28]: 1.95 h | clearance [29]: 10.6 mL/min/kg | Fu [31]: 0.45% | Vd [32]: 1.04 L/kg | Kp at 24 h [34]: 1 | bioavailability [35]: 61% | half-life [36]: 4.25 h | Fu [37]: 0.87% | clearance [41]: 8.03 mL/min/kg | IC50 [42]: 0.29 nM | Cmax [43]: 401 ng/mL
SMILES: COc1cc(C(=O)NC[C@](O)(c2cc(C(C)(C)O)c(F)c(-c3ccc(F)cc3)n2)C(F)(F)F)cc2cc(C)nnc12
Activity (Human orthopneumovirus [4]): Dose-Dependent Effect | Activity (Human orthopneumovirus [7]): Active | Activity (Human orthopneumovirus [10]): Dose-Dependent Effect | Activity (Human orthopneumovirus [11]): Active | Activity (Human orthopneumovirus [13]): Active | Activity (Human orthopneumovirus [30]): Dose-Dependent Effect | Activity (Human orthopneumovirus [33]): Active | CC50 at 72 h [38]: 27700 nM | Activity (Human orthopneumovirus [39]): Dose-Dependent Effect | Activity (Human orthopneumovirus [40]): Active
